Calls of active or inactive are those of the source.
Key:
[1] = biological target: T1, Endoribonuclease toxin MazF (Escherichia coli K-12, UniProt P0AE70); assay: MazF toxin RNase activators, dose response, biochemical, fluorescence, single-stranded RNA substrate, uHTS hits (AID 588481); type: functional
T1 sequence (P0AE70 whole entry): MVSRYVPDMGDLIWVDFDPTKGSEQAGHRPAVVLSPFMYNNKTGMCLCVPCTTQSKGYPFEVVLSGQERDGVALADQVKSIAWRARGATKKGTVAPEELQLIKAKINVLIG

[2] = biological target: T2, Zinc finger protein mex-5 (Caenorhabditis elegans, UniProt Q9XUB2); assay: MEX-5/TCR-2 RNA interaction inhibitors, dose response, biochemical, C. elegans, fluorescence polarization (AID 1960)
T2 sequence (Q9XUB2 whole entry): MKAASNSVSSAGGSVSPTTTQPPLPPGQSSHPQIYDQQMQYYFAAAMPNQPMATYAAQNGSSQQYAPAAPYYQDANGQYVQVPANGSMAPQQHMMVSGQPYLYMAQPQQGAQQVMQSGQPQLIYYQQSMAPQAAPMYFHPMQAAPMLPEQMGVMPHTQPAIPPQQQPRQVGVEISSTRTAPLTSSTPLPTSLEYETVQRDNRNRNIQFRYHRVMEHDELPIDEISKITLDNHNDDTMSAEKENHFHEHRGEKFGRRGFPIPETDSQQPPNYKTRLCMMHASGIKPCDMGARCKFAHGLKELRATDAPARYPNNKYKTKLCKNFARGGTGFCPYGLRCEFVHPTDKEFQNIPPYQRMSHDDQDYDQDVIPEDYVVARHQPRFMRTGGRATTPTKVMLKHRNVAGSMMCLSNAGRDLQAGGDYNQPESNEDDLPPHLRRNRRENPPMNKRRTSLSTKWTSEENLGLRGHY

[3] = biological target: T3, Streptokinase A (Streptococcus pyogenes serotype M1, UniProt P10520); assay: S. pyogenes streptokinase expression inhibitors, potency, dose response, plasminogen activation absorbance, OD405 (AID 1914); type: functional, Streptococcus pyogenes M1 GAS;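 note: secreted streptokinase activity via plasminogen activation per viability signal from cell pellet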
T3 sequence (P10520 whole entry): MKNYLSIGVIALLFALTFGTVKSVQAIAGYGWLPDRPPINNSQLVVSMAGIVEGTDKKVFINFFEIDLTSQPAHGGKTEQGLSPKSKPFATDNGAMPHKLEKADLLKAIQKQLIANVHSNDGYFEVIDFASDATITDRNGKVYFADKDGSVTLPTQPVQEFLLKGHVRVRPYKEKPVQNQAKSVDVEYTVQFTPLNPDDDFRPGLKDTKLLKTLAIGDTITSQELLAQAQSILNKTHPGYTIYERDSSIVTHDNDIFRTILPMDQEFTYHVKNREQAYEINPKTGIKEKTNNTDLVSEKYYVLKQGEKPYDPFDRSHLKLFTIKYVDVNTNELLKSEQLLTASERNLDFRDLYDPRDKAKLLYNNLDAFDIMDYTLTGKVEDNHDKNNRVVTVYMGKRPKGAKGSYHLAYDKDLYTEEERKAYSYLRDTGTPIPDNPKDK

[4] = tested on: Streptococcus; assay: Group A Streptococcus viability loss, dose response, counter-screen for streptokinase expression inhibitor project, luminescence, BacTiterGlo (AID 1915); type: functional, organism-based;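 note: potency for reduction of bacterial viability or growth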
[5] = biological target: Beta-galactosidase (Escherichia coli, UniProt Q8VNN2); assay: Dose response counterscreen for EBI2 assay utilizing the enzyme, b-galactosidase.; type: functional
Chain of Beta-galactosidase (Q8VNN2 whole entry, the tested form may be a part): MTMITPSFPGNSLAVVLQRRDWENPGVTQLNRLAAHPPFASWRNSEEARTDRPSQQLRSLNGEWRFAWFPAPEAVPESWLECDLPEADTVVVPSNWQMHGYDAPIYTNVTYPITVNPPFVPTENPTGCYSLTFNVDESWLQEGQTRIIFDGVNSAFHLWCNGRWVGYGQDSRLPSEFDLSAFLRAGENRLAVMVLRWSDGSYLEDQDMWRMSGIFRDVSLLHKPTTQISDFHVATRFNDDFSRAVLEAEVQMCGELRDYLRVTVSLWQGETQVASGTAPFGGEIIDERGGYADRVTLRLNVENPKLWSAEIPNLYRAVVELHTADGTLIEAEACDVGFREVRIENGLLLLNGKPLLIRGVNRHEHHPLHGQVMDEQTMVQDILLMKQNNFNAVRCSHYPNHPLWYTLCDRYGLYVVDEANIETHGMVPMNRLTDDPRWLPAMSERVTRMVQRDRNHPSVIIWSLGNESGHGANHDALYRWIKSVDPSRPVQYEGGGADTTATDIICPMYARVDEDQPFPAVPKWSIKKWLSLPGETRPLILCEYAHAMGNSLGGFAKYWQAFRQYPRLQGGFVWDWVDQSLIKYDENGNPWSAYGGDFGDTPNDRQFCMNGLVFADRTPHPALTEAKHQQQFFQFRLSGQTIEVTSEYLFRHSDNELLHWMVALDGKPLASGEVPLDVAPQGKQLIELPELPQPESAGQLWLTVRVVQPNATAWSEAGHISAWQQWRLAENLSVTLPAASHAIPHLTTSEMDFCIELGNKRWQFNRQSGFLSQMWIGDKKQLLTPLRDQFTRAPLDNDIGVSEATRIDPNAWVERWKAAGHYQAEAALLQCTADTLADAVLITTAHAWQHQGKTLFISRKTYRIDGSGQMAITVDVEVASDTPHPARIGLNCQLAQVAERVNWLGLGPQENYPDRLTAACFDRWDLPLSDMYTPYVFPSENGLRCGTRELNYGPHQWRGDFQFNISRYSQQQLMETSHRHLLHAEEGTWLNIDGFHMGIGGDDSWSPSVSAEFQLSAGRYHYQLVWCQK

[6] = biological target: T4, RNA-binding protein pos-1 (Caenorhabditis elegans, UniProt G5EF15); assay: inhibitors of POS-1/mex-3 RNA binding, dose response, biochemical, fluorescence polarization (AID 1964);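 note: purified POS-1 fused to maltose binding protein made in E. coli; potency of compounds blocking POS-1 binding to fluorescent RNA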
T4 sequence (G5EF15 whole entry): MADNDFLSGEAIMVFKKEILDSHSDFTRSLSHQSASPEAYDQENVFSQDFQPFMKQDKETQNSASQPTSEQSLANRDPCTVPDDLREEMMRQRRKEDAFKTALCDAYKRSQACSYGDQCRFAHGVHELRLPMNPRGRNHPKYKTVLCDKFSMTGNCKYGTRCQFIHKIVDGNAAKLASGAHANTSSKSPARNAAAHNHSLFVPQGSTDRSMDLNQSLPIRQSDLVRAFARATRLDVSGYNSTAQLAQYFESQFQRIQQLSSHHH

[7] = biological target: T1, Endoribonuclease toxin MazF; assay: fluorescent RNA oligo signal without MazF, dose response, counter-screen for MazEF activator project, biochemical, fluorescence, single-stranded RNase substrate (AID 588502); type: functional
[8] = biological target: Fructose-bisphosphate aldolase (Mycobacterium tuberculosis, UniProt P9WQA3); assay: Fluorescence-based biochemical high throughput dose response assay for inhibitors of the fructose-bisphosphate aldolase (FBA) of M. tuberculosis.; type: functional
Chain of Fructose-bisphosphate aldolase (P9WQA3 whole entry, the tested form may be a part): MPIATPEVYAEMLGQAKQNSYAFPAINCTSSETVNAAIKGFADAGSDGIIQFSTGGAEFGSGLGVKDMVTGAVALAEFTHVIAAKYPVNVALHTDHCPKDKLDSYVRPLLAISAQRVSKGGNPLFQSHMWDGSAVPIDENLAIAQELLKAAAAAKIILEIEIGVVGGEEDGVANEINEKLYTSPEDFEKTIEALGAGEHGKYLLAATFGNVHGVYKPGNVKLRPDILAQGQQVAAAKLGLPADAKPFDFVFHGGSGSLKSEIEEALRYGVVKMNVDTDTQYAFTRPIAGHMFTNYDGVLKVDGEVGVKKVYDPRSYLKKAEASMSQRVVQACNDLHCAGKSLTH

[9] = biological target: T5, Sentrin-specific protease 1 (Homo sapiens, UniProt Q9P0U3); assay: Dose response confirmation of small molecule inhibitors of the catalytic domain of the SUMO protease, SENP1 in a FRET assay.; type: functional; details: read-out: IC50_Mean
T5 sequence (Q9P0U3 whole entry): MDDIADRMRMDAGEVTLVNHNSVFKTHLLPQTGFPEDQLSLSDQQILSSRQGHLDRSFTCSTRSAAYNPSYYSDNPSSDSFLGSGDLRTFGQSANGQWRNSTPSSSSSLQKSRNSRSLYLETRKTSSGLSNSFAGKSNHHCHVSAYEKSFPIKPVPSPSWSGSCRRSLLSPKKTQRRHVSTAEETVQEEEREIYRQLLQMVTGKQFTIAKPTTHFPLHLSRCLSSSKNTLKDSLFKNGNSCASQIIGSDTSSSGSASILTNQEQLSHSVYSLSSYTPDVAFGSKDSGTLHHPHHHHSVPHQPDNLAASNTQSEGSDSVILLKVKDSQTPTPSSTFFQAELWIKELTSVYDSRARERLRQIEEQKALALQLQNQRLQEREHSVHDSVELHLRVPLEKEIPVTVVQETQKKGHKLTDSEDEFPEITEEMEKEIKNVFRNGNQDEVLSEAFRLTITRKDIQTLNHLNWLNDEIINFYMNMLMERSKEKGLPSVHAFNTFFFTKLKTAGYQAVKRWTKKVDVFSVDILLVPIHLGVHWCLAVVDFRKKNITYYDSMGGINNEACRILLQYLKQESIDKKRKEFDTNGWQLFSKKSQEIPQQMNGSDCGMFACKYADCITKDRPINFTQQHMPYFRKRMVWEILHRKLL

[10] = biological target: Prothrombin (Bos taurus, UniProt P00735); assay: thrombin inhibition, dose response, biochemical, fluorescence polarization, uHTS hits (AID 602369); type: functional
[11] = biological target: 72 kDa type IV collagenase (Homo sapiens, UniProt P08253); assay: Dose Response validation of uHTS RPN11 inhibitor hits using a MMP-2 Fluorescence assay.; type: functional
Chain of 72 kDa type IV collagenase (P08253 whole entry): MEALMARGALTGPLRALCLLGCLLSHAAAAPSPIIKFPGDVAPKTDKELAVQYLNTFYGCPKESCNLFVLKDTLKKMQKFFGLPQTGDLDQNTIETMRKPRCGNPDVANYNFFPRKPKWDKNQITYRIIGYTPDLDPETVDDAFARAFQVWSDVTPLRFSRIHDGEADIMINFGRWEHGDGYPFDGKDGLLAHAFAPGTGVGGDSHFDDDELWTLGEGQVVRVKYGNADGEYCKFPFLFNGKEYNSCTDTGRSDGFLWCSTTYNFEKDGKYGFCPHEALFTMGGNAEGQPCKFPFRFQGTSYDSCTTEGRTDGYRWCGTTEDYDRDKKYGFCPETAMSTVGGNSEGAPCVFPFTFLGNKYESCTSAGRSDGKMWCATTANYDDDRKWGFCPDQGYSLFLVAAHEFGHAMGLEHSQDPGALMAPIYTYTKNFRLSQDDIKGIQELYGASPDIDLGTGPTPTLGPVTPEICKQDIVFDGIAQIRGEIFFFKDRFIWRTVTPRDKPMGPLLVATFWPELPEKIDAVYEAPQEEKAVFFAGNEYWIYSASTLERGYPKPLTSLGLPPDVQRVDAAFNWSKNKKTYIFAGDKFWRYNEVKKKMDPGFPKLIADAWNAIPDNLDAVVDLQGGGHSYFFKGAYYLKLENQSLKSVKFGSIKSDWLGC

[12] = biological target: T5, Sentrin-specific protease 1; assay: potency of human SENP1 inhibitors, dose response, biochemical, kinetic FRET (AID 651697); type: functional; details: read-out: IC50_Mean
[13] = biological target: 26S proteasome non-ATPase regulatory subunit 14 (Homo sapiens, UniProt O00487); assay: inhibition of proteasome subunit RPN11 – biochemical, fluorescence polarization, uHTS hits, confirmation (AID 602368); type: functional
Chain of 26S proteasome non-ATPase regulatory subunit 14 (O00487 whole entry): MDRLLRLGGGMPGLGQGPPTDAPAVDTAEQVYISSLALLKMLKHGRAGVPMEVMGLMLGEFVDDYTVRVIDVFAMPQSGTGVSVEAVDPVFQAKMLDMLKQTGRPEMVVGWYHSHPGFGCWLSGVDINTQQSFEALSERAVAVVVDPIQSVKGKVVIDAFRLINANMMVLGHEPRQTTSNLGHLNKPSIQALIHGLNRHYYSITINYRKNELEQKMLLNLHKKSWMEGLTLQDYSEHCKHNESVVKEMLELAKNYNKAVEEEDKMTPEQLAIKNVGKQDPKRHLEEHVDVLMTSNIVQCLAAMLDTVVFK

[14] = biological target: Nuclear receptor subfamily 0 group B member 1 (Homo sapiens, UniProt P51843); type: functional, cell-based;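 note: HEK293T cells transfected with SF-1 and DAX-1 plus StAR promoter luciferase reporter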
Chain of Nuclear receptor subfamily 0 group B member 1 (P51843 whole entry): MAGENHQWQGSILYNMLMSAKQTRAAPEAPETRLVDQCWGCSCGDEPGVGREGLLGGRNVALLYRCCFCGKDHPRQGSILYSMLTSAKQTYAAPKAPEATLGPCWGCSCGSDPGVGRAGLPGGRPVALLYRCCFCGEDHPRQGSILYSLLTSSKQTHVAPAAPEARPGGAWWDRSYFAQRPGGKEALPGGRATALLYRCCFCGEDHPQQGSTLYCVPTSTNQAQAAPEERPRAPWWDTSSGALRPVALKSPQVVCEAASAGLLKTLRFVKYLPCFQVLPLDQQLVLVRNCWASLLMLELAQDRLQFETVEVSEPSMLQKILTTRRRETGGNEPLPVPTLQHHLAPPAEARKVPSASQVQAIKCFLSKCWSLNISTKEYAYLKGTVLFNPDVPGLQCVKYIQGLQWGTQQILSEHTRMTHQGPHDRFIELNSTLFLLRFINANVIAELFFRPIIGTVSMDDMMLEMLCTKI

[15] = cells; type: functional, cell-based
[16] = microbe, parasite or virus in culture; type: functional; details: Mycobacterium tuberculosis
[17] = tested on: HEK293; assay: HEK293T cell cytotoxicity, dose response, cytotoxicity control, ATP luminescence, cherry-pick samples (AID 687005); type: functional, cell-based; details: Homo sapiens;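 note: cells exposed to compound for 48 hours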
[18] = HEK293 Cytotoxicity Assay Measured in Cell-Based System Using Plate Reader - 7071-01_Inhibitor_Dose_CherryPick_Activity_Set2.; type: functional
[19] = tested on: Streptococcus sp. 'group A'; assay: growth inhibition of control SK(-) GAS strain, dose response, counter-screen for streptokinase expression inhibitor project, luminescence, kanamycin, BacTiterGlo, confirmation (AID 1900); type: functional, organism-based
[20] = biological target: Photoreceptor-specific nuclear receptor (Homo sapiens, UniProt Q9Y5X4); type: functional, cell-based;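 note: CHO-S cells with Gal4-NCOR and VP16-NR2E3 two-hybrid luciferase reporter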
Chain of Photoreceptor-specific nuclear receptor (Q9Y5X4 whole entry, the tested form may be a part): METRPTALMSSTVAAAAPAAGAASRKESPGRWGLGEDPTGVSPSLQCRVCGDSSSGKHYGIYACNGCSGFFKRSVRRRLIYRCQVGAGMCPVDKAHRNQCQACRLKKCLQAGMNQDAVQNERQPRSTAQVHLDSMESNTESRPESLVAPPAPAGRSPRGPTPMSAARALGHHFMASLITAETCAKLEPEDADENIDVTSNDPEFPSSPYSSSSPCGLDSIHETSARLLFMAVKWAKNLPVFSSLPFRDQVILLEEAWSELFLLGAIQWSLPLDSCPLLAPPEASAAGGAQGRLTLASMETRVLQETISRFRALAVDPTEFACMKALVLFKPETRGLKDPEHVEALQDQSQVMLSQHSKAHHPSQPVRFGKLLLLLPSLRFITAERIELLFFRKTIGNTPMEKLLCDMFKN

With COC(=O)/C=C1\C(=O)N(c2nc3ccccc3s2)C(=S)N1c1ccc(F)cc1 the EC50 [1] was > 99 µM (inactive), the EC50 [2] was > 300 µM (not active) and the EC50 [3] was > 150 µM (not active). For the same compound, the EC50 [4] was > 150 µM (not active), the IC50 [5] was > 80 µM (inactive) and the EC50 [6] was > 300 µM (not active). For the same compound, the EC50 [7] was > 99 µM (inactive).

With CCC(=O)Nc1ccc2c(c1)C(=O)N(C)C2=O the IC50 [8] was 4.38 µM (active).

For COc1cccc(NC2=Nc3cccc4cccc2c34)c1, the IC50 [9] was 41.3 µM (inactive), the IC50 [10] was 37.8 µM (active) and the IC50 [11] was > 100 µM (inactive). For the same compound, the IC50 [12] was 27.7 µM (inactive) and the IC50 [13] was 27.6 µM (active).

With CCOC(=O)c1c(S(=O)(=O)Nc2ccc(CN3CCC(C)CC3)cc2)c(C)n(C)c1C the IC50 [14] was > 67.5 µM (inactive) and the IC50 [15] was > 67.5 µM (inactive).

With Cc1nc2c(cc1N)nc(C)n2Cc1ccccc1 the IC50 [8] was 0.653 µM (active).

With CCOC(=O)c1ccc(/N=c2\sc(C(=O)OC)cc(=O)n2CCCN2CCOCC2)cc1 the CC50 [16] was > 40 µM (active) and the IC50 [5] was > 80 µM (inactive).

With COc1ccccc1CNC(=O)C[C@@H]1CC[C@@H]2[C@H](COc3ccc(NC(C)=O)cc3C(=O)N2C)O1 the AC50 [17] was 37.8 µM (active) and the AC50 [18] was 37.8 µM (active).

In the case of CC(=O)c1c(O)cc(O)c(C(C)=O)c1O, the EC50 [19] was 3.9 µM (active), the IC50 [20] was 3.24 µM (active) and the EC50 [4] was 3.98 µM (active).

Source: ChEMBL document CHEMBL1201862, “PubChem BioAssay data set” (2004)
